This is an account of results in patent US8415469B2, “Compounds and methods for kinase modulation, and indications therefor” (Plexxikon Inc., priority 2005, dated 2013).

Common to all, as to assay type: biochemical
Assay [1] concerns the target T1, Ret (Homo sapiens, UniProt P07949).
T1 construct: P1378.pET-SF BI-PTP RET H661-R1012 HIS; made in house
T1 sequence (P07949 with tags, fused parts or gaps): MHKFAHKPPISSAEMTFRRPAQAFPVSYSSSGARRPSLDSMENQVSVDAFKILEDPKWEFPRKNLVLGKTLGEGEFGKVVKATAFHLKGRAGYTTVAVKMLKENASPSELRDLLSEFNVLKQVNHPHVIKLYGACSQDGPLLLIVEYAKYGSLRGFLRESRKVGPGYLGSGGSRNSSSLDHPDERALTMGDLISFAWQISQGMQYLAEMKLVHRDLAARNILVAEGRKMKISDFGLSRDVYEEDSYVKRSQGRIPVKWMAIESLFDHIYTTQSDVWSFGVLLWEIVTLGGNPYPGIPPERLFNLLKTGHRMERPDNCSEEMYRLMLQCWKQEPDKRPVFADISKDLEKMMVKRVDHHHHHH
As to the kind of experiment: AlphaScreen kinase assay, Ret. Particulars: read-out: IC50, activity toward kinase Ret.

The target of assay [2] is T2, B-Raf V600E (Homo sapiens, UniProt P15056, V600E).
T2 construct: P4254. pFastBacBD-CDC37 BRAF D437-K722-X, V600E; His6 with pFastBac HT leader (TEV site) (N); made in house; host or cells: Sf9 (baculovirus; chaperone CDC37 co-expressed)
T2 sequence (P15056 with tags, fused parts or gaps V600E): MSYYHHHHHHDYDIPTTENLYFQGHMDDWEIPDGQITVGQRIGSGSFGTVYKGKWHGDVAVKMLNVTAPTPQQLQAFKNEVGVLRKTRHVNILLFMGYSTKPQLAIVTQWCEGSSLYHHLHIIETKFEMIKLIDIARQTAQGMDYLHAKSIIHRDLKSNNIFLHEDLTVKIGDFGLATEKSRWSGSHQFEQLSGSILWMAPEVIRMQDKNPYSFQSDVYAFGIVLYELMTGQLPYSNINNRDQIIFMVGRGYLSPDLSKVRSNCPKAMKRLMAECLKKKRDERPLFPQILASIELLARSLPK
Nature of the assay: AlphaScreen kinase assay, B-Raf V600E. Particulars: read-out: IC50, activity toward kinase B-Raf V600E. On the technique in general: Alpha assays give light when donor and acceptor beads are brought close together.

Assay [3] deals with T3, Kit (Homo sapiens, UniProt P10721).
T3 construct: P1332.N6 BI PTP KIT M552-K948-X COD; His6 (N); made in house; host or cells: E. coli (PTP1B co-expressed)
T3 sequence (P10721 with tags, fused parts or gaps): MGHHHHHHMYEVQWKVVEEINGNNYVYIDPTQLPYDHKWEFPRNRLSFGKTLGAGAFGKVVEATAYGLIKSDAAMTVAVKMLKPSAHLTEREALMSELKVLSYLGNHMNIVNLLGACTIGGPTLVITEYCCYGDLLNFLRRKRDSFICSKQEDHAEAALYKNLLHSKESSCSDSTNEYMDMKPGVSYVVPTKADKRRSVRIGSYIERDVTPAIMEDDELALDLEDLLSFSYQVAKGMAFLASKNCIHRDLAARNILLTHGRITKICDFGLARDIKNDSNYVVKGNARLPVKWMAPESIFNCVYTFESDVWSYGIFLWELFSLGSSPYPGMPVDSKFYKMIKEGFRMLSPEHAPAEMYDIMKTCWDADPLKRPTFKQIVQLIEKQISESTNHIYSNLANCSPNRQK
As to the kind of experiment: AlphaScreen kinase assay, Kit. Particulars: read-out: IC50, activity toward kinase Kit.
Excerpt: AlphaScreen assay was used to screen additional kinases. The assay is similarly dependent on the phosphorylation of a peptide substrate. In this assay, an antibody that recognizes phosphorylated substrate is bound to an acceptor bead. The peptide substrate is attached to biotin, which binds to a donor head that contains streptavidin. Thus phosphorylated substrate is bound by antibody and streptavidin, bringing the donor and acceptor heads into close proximity when kinase is not inhibited. The donor produces singlet oxygen which results in emission from the acceptor when they are in close proximity. Conversely, when kinase is inhibited, the donor and acceptor beads are not associated and the emission from the acceptor is reduced.
AlphaScreen assays were done using compounds dissolved in DMSO to a concentration of 20 mM. The compounds were diluted accordingly to the desired final concentrations in each sample well, using 1:3 serial dilution for a total of 8 concentration points. Plates were prepared such that each kinase reaction is 20 μl in 1× kinase buffer, 5% DMSO and 10 μM ATP. After incubation of the kinase reaction for 1 hour at room temperature, 5 μl of donor beads in stop buffer (50 mM EDTA in 1× kinase buffer) was added, the sample was mixed and incubated for 20 minutes at room temperature before adding 5 μl of acceptor beads in stop buffer. The samples were incubated for 60 minutes at room temperature and the signal per well was read on AlphaQuest reader.

Assay [4] addresses T4, B-Raf (Homo sapiens, UniProt P15056).
T4 construct: purchased Upstate Biotechnology
Nature of the assay: AlphaScreen kinase assay, B-Raf. Particulars: read-out: IC50, activity toward kinase B-Raf.

In assay [5] the target is T5, Fms (Homo sapiens, UniProt P07333).
T5 construct: purchased Upstate Biotechnology
T5 sequence (P07333 20-972): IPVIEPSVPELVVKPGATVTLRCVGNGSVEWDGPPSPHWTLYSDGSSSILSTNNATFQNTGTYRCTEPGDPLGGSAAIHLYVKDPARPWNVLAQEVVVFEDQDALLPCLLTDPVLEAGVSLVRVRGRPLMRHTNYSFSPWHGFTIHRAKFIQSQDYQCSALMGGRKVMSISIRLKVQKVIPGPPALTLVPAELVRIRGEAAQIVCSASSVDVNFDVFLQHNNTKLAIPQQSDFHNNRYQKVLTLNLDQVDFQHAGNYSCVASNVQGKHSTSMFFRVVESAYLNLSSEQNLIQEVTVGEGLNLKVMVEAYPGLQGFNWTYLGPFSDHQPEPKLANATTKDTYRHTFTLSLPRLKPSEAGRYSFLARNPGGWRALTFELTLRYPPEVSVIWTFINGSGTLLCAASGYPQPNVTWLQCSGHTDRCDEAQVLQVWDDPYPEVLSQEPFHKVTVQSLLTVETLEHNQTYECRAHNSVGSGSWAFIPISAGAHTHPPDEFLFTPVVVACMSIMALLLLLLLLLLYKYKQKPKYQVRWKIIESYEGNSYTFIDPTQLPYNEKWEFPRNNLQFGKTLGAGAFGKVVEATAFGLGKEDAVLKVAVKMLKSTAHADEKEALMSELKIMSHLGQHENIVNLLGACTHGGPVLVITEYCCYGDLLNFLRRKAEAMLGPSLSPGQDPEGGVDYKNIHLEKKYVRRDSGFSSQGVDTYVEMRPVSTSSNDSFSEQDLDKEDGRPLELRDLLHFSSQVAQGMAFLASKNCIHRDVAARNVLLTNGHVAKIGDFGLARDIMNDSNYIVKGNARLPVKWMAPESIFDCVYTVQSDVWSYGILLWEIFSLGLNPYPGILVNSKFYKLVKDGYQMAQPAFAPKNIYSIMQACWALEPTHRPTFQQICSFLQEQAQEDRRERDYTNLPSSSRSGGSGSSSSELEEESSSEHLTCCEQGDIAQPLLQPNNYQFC
As to the kind of experiment: AlphaScreen kinase assay, Fms. Conditions: read-out: IC50, activity toward kinase Fms.

In assay [6] the target is T6, FGFR1 (Homo sapiens, UniProt P11362, C488A/C584S).
T6 construct: P1351.pET N6 BI-PTP FGFR A458-E765-X C488A, C584S; made in house; host or cells: E. coli (PTP1B co-expressed)
T6 sequence (P11362 458-765 C488A/C584S): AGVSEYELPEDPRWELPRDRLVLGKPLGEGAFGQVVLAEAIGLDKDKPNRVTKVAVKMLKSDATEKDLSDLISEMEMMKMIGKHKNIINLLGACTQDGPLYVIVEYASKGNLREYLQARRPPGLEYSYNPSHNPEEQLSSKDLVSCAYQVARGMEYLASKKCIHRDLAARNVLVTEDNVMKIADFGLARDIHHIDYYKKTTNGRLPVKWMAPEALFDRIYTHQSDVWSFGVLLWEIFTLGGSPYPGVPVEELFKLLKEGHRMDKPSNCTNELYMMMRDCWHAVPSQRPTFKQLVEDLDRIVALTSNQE
As to the kind of experiment: AlphaScreen kinase assay, FGFR1. Particulars: read-out: IC50, activity toward kinase FGFR.

T4 sequence (P15056 whole entry): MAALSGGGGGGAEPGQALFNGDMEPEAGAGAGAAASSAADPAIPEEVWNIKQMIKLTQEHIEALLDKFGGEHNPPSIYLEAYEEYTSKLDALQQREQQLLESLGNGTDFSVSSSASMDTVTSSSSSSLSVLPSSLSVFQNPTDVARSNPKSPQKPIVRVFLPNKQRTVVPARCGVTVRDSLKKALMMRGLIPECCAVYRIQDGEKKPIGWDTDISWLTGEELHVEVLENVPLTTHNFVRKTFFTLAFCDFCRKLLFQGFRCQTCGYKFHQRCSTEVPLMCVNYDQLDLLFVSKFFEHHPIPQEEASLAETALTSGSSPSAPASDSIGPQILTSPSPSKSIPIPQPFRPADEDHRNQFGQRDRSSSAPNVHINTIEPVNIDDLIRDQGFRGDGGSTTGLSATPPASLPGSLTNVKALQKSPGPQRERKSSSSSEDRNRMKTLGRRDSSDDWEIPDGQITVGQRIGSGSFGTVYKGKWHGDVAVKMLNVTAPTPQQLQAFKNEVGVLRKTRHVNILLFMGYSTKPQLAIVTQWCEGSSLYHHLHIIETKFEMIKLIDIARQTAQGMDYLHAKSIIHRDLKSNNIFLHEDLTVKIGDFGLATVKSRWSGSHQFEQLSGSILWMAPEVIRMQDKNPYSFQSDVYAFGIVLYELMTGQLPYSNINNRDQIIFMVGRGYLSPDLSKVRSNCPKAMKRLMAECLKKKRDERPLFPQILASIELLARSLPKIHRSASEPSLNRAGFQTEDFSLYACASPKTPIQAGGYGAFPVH

For orientation: IC50 means the concentration at which inhibition is half-maximal. As for `CS(=O)(=O)Nc1cccc(-c2ccnc3[nH]cc(C(=O)c4cccc(Cl)c4Cl)c23)c1` [Compound P-0231], the IC50 in assay [1] and in assay [2] was not above 10 µM each time.

With `COc1ccc(-c2ccnc3[nH]cc(C(=O)c4ccccc4F)c23)cn1` [Compound P-0245], the concentration for half-maximal inhibition (IC50) in assay [1] is not above 10 µM.

Regarding `COc1ccc(F)c(C(=O)c2c[nH]c3ncc(Br)cc23)c1` [Compound P-0284], the IC50 in assay [3], in assay [4], in assay [2], in assay [5] and in assay [6] was not above 10 µM each time.

In the case of `O=C(c1cccc(Cl)c1Cl)c1c[nH]c2nccc(-c3ccsc3)c12` [Compound P-0347], the IC50 in assay [1] and in assay [2] was not above 10 µM each time.

As for `O=S(=O)(NCc1c[nH]c2ncccc12)C(F)(F)F` [Compound P-0412], in assay [1], the concentration for half-maximal inhibition (IC50) was not above 10 µM.

With `Fc1ccc(-c2c(CNCc3ccccc3)[nH]c3ncccc23)cc1` [Compound P-0517], in assay [1], the half-maximal inhibitory concentration (IC50) was not above 10 µM.

For the compound `Cc1c(Cl)cc(F)cc1S(=O)(=O)NCc1cc2cccnc2[nH]1` [Compound P-0533], the IC50 in assay [1] was not above 10 µM.

As for `COc1ccc(-c2ccnc3[nH]cc(C(=O)c4ccccc4C)c23)cn1` [Compound P-0536], the IC50 in assay [1] is not above 10 µM.

For `Fc1cnc(F)c(F)c1Cc1c[nH]c2ncc(-c3ccsc3)cc12` [Compound P-0596], the IC50 in assay [1] was not above 10 µM.

As for `Cc1cc(C(=O)c2c[nH]c3ncc(Br)cc23)no1` [Compound P-0608], the half-inhibitory concentration (IC50) in assay [1] is not above 10 µM.

For `CS(=O)(=O)Nc1cccc(-c2ccnc3[nH]cc(C(=O)c4ccc(Cl)cc4)c23)c1` [Compound P-0678], the concentration for half-maximal inhibition (IC50) in assay [1] was not above 10 µM.

As for `O=S(=O)(NCc1c[nH]c2ncccc12)c1cc(Br)cc(Cl)n1` [Compound P-0726], the IC50 in assay [1] was not above 10 µM.

As for `Cc1nc(-c2ccc(S(=O)(=O)NCc3c[nH]c4ncccc34)s2)cs1` [Compound P-0735], the IC50 in assay [1] was not above 10 µM.

`CS(=O)(=O)Nc1ccc(F)c(C(=O)c2c[nH]c3ncccc23)c1` [Compound P-0881]: the IC50 in assay [1] is not above 10 µM.

Consider `Cc1ccc(F)cc1C(=O)c1c[nH]c2nccc(-c3cccc(/C=C/C(=O)O)c3)c12` [Compound P-0985], for which, in assay [1], the half-inhibitory concentration (IC50) is not above 10 µM.

Regarding `Cc1cc(C(=O)c2c[nH]c3nccc(-c4cccc(C(N)=O)c4)c23)no1` [Compound P-1036], in assay [1], the IC50 is not above 10 µM.

Consider `Cc1cc(C(=O)c2c[nH]c3ncc(-c4cccc(/C=C/C(=O)O)c4)cc23)no1` [Compound P-1072], for which the IC50 in assay [1] was not above 10 µM.

Take `CC(=O)Nc1cccc(-c2ccnc3[nH]cc(C(=O)c4ccc(Cl)cc4)c23)c1` [Compound P-1075]: the concentration for half-maximal inhibition (IC50) in assay [1] is not above 10 µM.

With `[O-][S+](c1ccccc1)c1c[nH]c2ncc(Br)cc12` (centres unmarked) [Compound P-1097], the concentration for half-maximal inhibition (IC50) in assay [1] was not above 10 µM.

`Cc1ccc(F)cc1C(=O)c1c[nH]c2nccc(-c3cccnc3)c12` [Compound P-1121]: in assay [1], the half-inhibitory concentration (IC50) is not above 10 µM.

For `CC(=O)Nc1cccc(-c2ccnc3[nH]cc(C(=O)c4cc(F)ccc4C)c23)c1` [Compound P-1126], the concentration for half-maximal inhibition (IC50) in assay [1] is not above 10 µM.

For the compound `Cc1ccc(F)cc1C(=O)c1c[nH]c2nccc(-c3cccc(S(C)(=O)=O)c3)c12` [Compound P-1129], in assay [1], the IC50 is not above 10 µM.

`O=C(c1cccc(Cl)c1Cl)c1c[nH]c2nccc(-c3ccc(Cl)cc3)c12` [Compound P-1130]: the IC50 in assay [1] is not above 10 µM.

Regarding `Cc1ccc(F)cc1C(=O)c1c[nH]c2nccc(-c3ccc(Cl)cc3)c12` [Compound P-1133], the IC50 in assay [1] is not above 10 µM.

Regarding `CS(=O)(=O)c1cccc(-c2ccnc3[nH]cc(C(=O)c4cccc(Cl)c4Cl)c23)c1` [Compound P-1134], in assay [1], the concentration for half-maximal inhibition (IC50) was not above 10 µM.

`Cc1ccc(F)cc1C(=O)c1c[nH]c2nccc(-c3cccc(N)c3)c12` [Compound P-1135]: the IC50 in assay [1] was not above 10 µM.

On to `Cc1cc(C(=O)c2c[nH]c3ncc(-c4cccc(/C=C/C(=O)O)c4)cc23)nn1C` [Compound P-1137], for which the concentration for half-maximal inhibition (IC50) in assay [1] is not above 10 µM.

For `Cc1cc(C(=O)c2c[nH]c3nccc(-c4ccc(Cl)cc4)c23)no1` [Compound P-1178], in assay [1], the IC50 is not above 10 µM.

`COc1cccc(C(=O)c2c[nH]c3nccc(-c4cccc(NS(C)(=O)=O)c4)c23)c1` [Compound P-1185]: in assay [1], the half-inhibitory concentration (IC50) is not above 10 µM.

Turning to `Cc1ccc(F)cc1C(=O)c1c[nH]c2nccc(-c3ccsc3)c12` [Compound P-1189], the IC50 in assay [1] is not above 10 µM.

Take `COc1cccc(C(=O)c2c[nH]c3nccc(-c4ccc(Cl)cc4)c23)c1` [Compound P-1191]: the half-inhibitory concentration (IC50) in assay [1] is not above 10 µM.

Consider `COc1ccc(-c2ccnc3[nH]cc(C(=O)c4cc(F)ccc4C)c23)cn1` [Compound P-1192], for which, in assay [1], the IC50 is not above 10 µM.

For the compound `O=C(c1ccccc1)c1c[nH]c2ncc(-c3ccsc3)cc12` [Compound P-1193], the concentration for half-maximal inhibition (IC50) in assay [1] was not above 10 µM.

For the compound `Cc1cc(C(=O)c2c[nH]c3nccc(-c4ccc(Cl)cc4)c23)n(C)n1` [Compound P-1196], in assay [1], the IC50 is not above 10 µM.

For `CS(=O)(=O)c1cccc(-c2ccnc3[nH]cc(C(=O)c4ccc(Cl)cc4)c23)c1` [Compound P-1198], in assay [1], the IC50 is not above 10 µM.

As for `Cc1ccccc1C(=O)c1c[nH]c2nccc(-c3cccc(S(C)(=O)=O)c3)c12` [Compound P-1200], the half-maximal inhibitory concentration (IC50) in assay [1] was not above 10 µM.

On to `Cc1ccccc1C(=O)c1c[nH]c2nccc(-c3ccc(Cl)cc3)c12` [Compound P-1201], for which, in assay [1], the half-maximal inhibitory concentration (IC50) was not above 10 µM.

On to `N#Cc1ccc(S(=O)(=O)Nc2ccc(F)c(C(=O)c3c[nH]c4ncc(Cl)cc34)c2F)cc1` [Compound P-1822, N-[3-(5-Chloro-1H-pyrrolo[2,3-b]pyridine-3-carbonyl)-2,4-difluoro-phenyl]-4-cyano-benzenesulfonamide], for which the IC50 in assay [3], in assay [4], in assay [2] and in assay [5] was not above 10 µM throughout.

In the case of `O=C(c1c(F)ccc(NS(=O)(=O)c2ccc(F)cc2)c1F)c1c[nH]c2ncc(Cl)cc12` [Compound P-1840, N-[3-(5-Chloro-1H-pyrrolo[2,3-b]pyridine-3-carbonyl)-2,4-difluoro-phenyl]-4-fluoro-benzenesulfonamide], the IC50 in assay [3], in assay [4], in assay [2] and in assay [5] was not above 10 µM each time.

As for `COCCOc1cnc2[nH]cc(C(=O)c3c(F)ccc(NS(=O)(=O)c4ccc(F)cc4)c3F)c2c1` [Compound P-1872, N-{2,4-Difluoro-3-[5-(2-methoxy-ethoxy)-1H-1-pyrrolo[2,3-b]pyridine-3-carbonyl]-phenyl}-4-fluoro-benzenesulfonamide], the half-maximal inhibitory concentration (IC50) in assay [3], in assay [4], in assay [2] and in assay [5] was not above 10 µM in each case.

For `CCCS(=O)(=O)Nc1ccc(F)c(C(=O)c2c[nH]c3ncc(-c4cc(C)c(C#N)c(C)c4)cc23)c1F` [Compound P-1980, Propane-1-sulfonic acid {3-[5-(4-cyano-3,5-dimethyl-phenyl)-1H-pyrrolo[2,3-b]pyridine-3-carbonyl]-2,4-difluoro-phenyl}-amide], the IC50 in assay [3], in assay [4], in assay [2] and in assay [5] was not above 10 µM each time.

As to `Cn1cc(-c2cnc3[nH]cc(C(=O)c4c(F)ccc(NS(=O)(=O)c5ccc(C(F)(F)F)cc5)c4F)c3c2)cn1` [Compound P-1996, N-{2,4-Difluoro-3-[5-(1-methyl-1H-pyrazol-4-yl)-1H-pyrrolo[2,3-b]pyridine-3-carbonyl]-phenyl}-4-trifluoromethyl-benzenesulfonamide], the concentration for half-maximal inhibition (IC50) in assay [3], in assay [4], in assay [2] and in assay [5] was not above 10 µM in each case.

For `Cn1cc(-c2cnc3[nH]cc(C(=O)c4c(F)ccc(NS(=O)(=O)c5cccc(F)c5)c4F)c3c2)cn1` [Compound P-1997, N-{2,4-Difluoro-3-[5-(1-methyl-1H-pyrazol-4-yl)-1H-pyrrolo[2,3-b]pyridine-3-carbonyl]-phenyl}-3-fluoro-benzenesulfonamide], the IC50 in assay [3], in assay [4], in assay [2] and in assay [5] was not above 10 µM each time.

As to `CCCS(=O)(=O)Nc1ccc(F)c(C(=O)c2c[nH]c3ncc(-c4ccc(OCCOC)cc4)cc23)c1F` [Compound P-1998, Propane-1-sulfonic acid (2,4-difluoro-3-{5-[4-(2-methoxy-ethoxy)-phenyl]-1H-pyrrolo[2,3-b]pyridine-3-carbonyl}-phenyl)-amide], the IC50 in assay [3], in assay [4], in assay [2] and in assay [5] was not above 10 µM throughout.
